Source: patent US20210161149A1, “METHOD OF CONTROLLING SOIL-BORNE DISEASES OF PLANTS” (NATIONAL AGRICULTURE AND FOOD RESEARCH ORGANIZATION, priority 2018, published 2021)

Assays:
[1] = tested on: Pythium ultimum strain MAFF425494; test: Control of Pythium soil-borne disease in cucumber by a Pseudomonas bacterium combined with an amino acid; format: in vivo; conditions: for effect on disease control ability of the Pseudomonas bacterium, averaged cucumber weight (FIG. 2): 10 mM amino acid combined with Pseudomonas protegens strain CHA0, n=12 per group
Procedure: The disease control abilities of a Pseudomonas bacterium and glutamic acid against an infectious disease caused by a Pythium (Pythium ultimum strain MAFF425494) as a soil pathogen were investigated using cucumber as a test plant.
(§1) Cucumber seeds were placed on a filter paper moistened with sterile water and left in darkness at 26° C. for 24 hours. Pseudomonas protegens strain CHA0 was used as a Pseudomonas bacterium and incubated with shaking in NYB medium (nutrient broth 25 g, yeast extract 5 g, H2O 1000 mL) under the conditions of 30° C. and 180 rpm for 24 hours. The broth culture of the Pseudomonas bacterium was centrifuged to remove supernatants, and the precipitate was suspended in sterile water to OD600=0.1.
Vermiculite was moistened by adding water. To the vermiculite, coarse cereal crops (millet) previously infected with a Pythium were added as they were, and mixing was done well. 7 g of the coarse cereal crops infected with a Pythium was added to 1 L of the vermiculite. Some portion of the vermiculite was left without adding the coarse cereal crops infected with a Pythium.
(§2) 50 mL of each prepared vermiculite was equally divided into sections (each 5 cm square and 5 cm deep) of a seedling tray with drainage holes at the bottom for water to drain out. Two grains of cucumber seeds observed to have germinated were seeded on each divided vermiculite.
The Pseudomonas bacterium and glutamic acid were applied to cucumber seeds and soils in their vicinity. To be specific, for each section of the seedling tray, 4 mL of the adjusted solution of the Pseudomonas bacterium was applied to cucumber seeds, and 15 mL of the vermiculite left without being infected with a Pythium was placed over the cucumber seeds. The seedling tray was soaked in water or an aqueous solution of 10 mM glutamic acid (L-glutamic acid) (10 mL per seedling tray section) contained in a vat. The applications of the Pseudomonas bacterium and glutamic acid were carried out within 2 hours after the seeding of cucumber seeds. The interval between the timings of applications of the Pseudomonas bacterium and glutamic acid was ensured to be not exceeding 1 hour.
The seedling tray was kept in a plant incubator set at 25° C. The light and dark periods were set to 16 and 8 hours, respectively. The cultivation period in the incubator was set to 2 weeks. Replacement of water or an aqueous solution of 10 mM glutamic acid in a vat was done every other day.
By using the same procedure as in Example 1, the effectiveness of combined use of the Pseudomonas bacterium with each of glutamic acid and histidine was investigated.
For application of histidine, an aqueous solution of 10 mM histidine (L-histidine) was prepared and used instead of the aqueous solution of glutamic acid used in Example 1. The number of cucumbers cultivated was n=12 for each group. After 2 weeks of cultivation, the weights of cucumbers were measured and averaged. Upon measurement of the weights of cucumbers, it was ensured that the vermiculite remaining on the roots of cucumbers was washed away carefully.
The effects of combined use of a Pseudomonas bacterium with other amino acids than histidine were investigated. In this example, not only glutamic acid (Glu), but also the following other amino acids: glutamine (Gln), glycine (Gly), leucine (Leu), phenylalanine (Phe), arginine (Arg), lysine (Lys), valine (Val), isoleucine (Ile) and tryptophane (Trp), were evaluated by using the same procedure as in Example 1. For each of these amino acids, an aqueous solution of 10 mM amino acid was prepared and used. In this example, Pseudomonas protegens strain Cab57 was used as a Pseudomonas bacterium, and all amino acids used were of the L-form.
The number of cucumbers cultivated in this example was n=12 to 18 for each group. As in Example 2, after 2 weeks of cultivation, the weights of cucumbers were measured and averaged. […]

[2] = tested on: Rhizoctonia solani strain MAFF726551; test: Control of Rhizoctonia soil-borne disease in cucumber by a Pseudomonas bacterium combined with glutamic acid; format: in vivo; conditions: 10 mM glutamic acid combined with Pseudomonas protegens strain Cab57, 5 days cultivation, n=8 to 12
Procedure: as §1, §2
The Pseudomonas bacterium and glutamic acid were applied to cucumber seeds and soils in their vicinity. […]
In this example, by using the same procedure as in Example 1, 1 g of coarse cereal crops infected with the Rhizoctonia was added to 1 L of vermiculite, instead of 7 g of coarse cereal crops infected with a Pythium. […] As in Example 3, for each of the averaged values of the cucumber weights after cultivation calculated for the different groups, a relative value was determined with respect to the averaged value for the group treated with the Pseudomonas bacterium alone, which was taken as 1.

| Compound | effect on disease control ability of the Pseudomonas bacterium, averaged cucumber weight (FIG. 2) ([1]; cucumber, 2 weeks) | effect of combined use on the soil-borne disease control ability of the Pseudomonas bacterium (photograph, FIG. 1) ([1]; cucumber germinated seeds in vermiculite, 10 mM L-glutamic acid combined with Pseudomonas protegens strain CHA0, 2 weeks cultivation) | effect on disease control ability of the Pseudomonas bacterium, cucumber weight relative to bacterium alone = 1 (FIG. 3) ([1]; cucumber, 10 mM L-amino acid combined with Pseudomonas protegens strain Cab57, 2 weeks, n=12 to 18) | soil-borne disease control ability of glutamic acid itself (FIG. 1) ([1]; cucumber, 10 mM L-glutamic acid alone, no Pseudomonas bacterium, 2 weeks cultivation) | effect on disease control ability of the Pseudomonas bacterium, cucumber weight relative to bacterium alone = 1 (FIG. 4) ([1]; cucumber, 10 mM glutamic acid combined with Pseudomonas sp. strain Os17, 2 weeks, n=17) | effect on soil-borne disease control ability of the Pseudomonas bacterium, cucumber weight relative to bacterium alone = 1 (FIG. 5) [2] |
| --- | --- | --- | --- | --- | --- | --- |
| N[C@@H](Cc1c[nH]cn1)C(=O)O [histidine, L-histidine, reference compound] | did not have a capability of enhancing the disease control ability of the Pseudomonas bacterium |  |  |  |  |  |
| N[C@@H](CCC(=O)O)C(=O)O [glutamic acid, L-glutamic acid] | enhanced the disease control ability of the bacterium | enhanced the soil-borne disease control ability of the Pseudomonas bacterium | exhibited a similar effect even on a different strain of Pseudomonas bacterium | seemed not to have a high soil-borne disease control ability | exhibited a similar effect | exhibited similar enhancement of soil-borne disease control ability |
